The values that follow come from PMC13576449, “Small-Molecule Activators of PRMT1: Discovery, SAR Analyses, and Proapoptotic Effects in Pancreatic Cancer Cells” (Journal of Medicinal Chemistry, 2026).

One assay deals with T1, FLAG-tagged PRMT6 (Homo sapiens, UniProt Q96LA8).
T1 construct: The complete ORFs of human PRMT3 and PRMT6 were inserted; made in house; host or cells: Sf9 insect cells (baculovirus)
T1 sequence (Q96LA8 whole entry): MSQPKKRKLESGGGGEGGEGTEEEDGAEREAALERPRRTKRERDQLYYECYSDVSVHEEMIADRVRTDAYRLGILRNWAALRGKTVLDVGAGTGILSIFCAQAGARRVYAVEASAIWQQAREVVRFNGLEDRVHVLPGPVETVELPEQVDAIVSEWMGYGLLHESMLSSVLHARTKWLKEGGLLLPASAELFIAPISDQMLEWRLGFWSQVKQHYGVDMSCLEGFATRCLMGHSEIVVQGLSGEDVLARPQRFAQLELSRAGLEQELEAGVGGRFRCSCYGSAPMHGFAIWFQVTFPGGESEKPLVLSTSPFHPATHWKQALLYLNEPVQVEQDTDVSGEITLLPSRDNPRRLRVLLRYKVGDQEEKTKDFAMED
Briefly: Fluorescence-based in vitro PRMT assay (F-PRMT assay), PRMT6. The format is biochemical. The note with it: Table S2; 100 µM compound, vs solvent control = 100%, n=3; racemates used. An excerpt: (§1) To evaluate the effects of the selected candidate molecules on the catalytic activity of type I enzymes, we employed a quantitative fluorescence-based in vitro PRMT activity (F-PRMT) assay using recombinant FLAG-tagged PRMT proteins expressed and affinity-purified from baculovirus-infected Sf9 cells (SI Figure S1, SI Figure S2A).
(§2) Human cell lines (PaTu8988T, PANC-1) were obtained from ATCC (American Type Culture Collection) and cultured in DMEM supplemented with 10% fetal calf serum (FCS, Gibco/BRL), 1% penicillin/streptomycin at 37 °C and 5% CO2. […] For PRMT1 inhibition, cells were treated with type I PRMT inhibitor MS023 hydrochloride (Biomol). For induction of genotoxic stress, cells were treated with gemcitabine (LC Laboratories). […] The following plasmids were used: pFASTBAC-FLAG-rat PRMT1, pFASTBAC-FLAG-mouse PRMT4, and pGEX-GAR. The complete ORFs of human PRMT3 and PRMT6 were inserted into the pFASTBAC HT-3xFLAG B vector via BamHI/HindIII and BamHI/XhoI sites, respectively.
(§3) For PRMT protein expression in insect cells, recombinant baculovirus (bacmid) was generated using the Bac-to-Bac baculovirus system (Invitrogen). Sf9 cells were transfected with bacmid DNA using X-tremeGENE HP DNA transfection reagent (Sigma-Aldrich) according to the manufacturer's instructions. After 3–5 days, supernatants were collected, filtered, and used to infect Sf9 cells to amplify the virus. After 2 rounds of virus amplification and estimation of the final P3 virus titer, the P3 virus (2–5 μL/10^6 cells) was applied for large-scale infection of 200 × 10^6 Sf9 cells in suspension culture at a density of 1 × 10^6 cells/mL. Cells were harvested 5–6 days post-infection by centrifugation at 500 g for 5 min at room temperature. Protein purification from baculovirus-infected Sf9 cells was performed as previously described. , Cells were lysed in BC buffer (20 mM HEPES pH 7.9, 250 mM NaCl, 10% (v/v) glycerin, 0.4 mM EDTA, 1 mM DTT) containing a protease inhibitor cocktail (Roche) by 3 freeze-thaw cycles. After centrifugation at 11,000 rpm (Sorval SS34 rotor) and 4 °C for 1 h, the supernatant (whole cell protein extract) was incubated with anti-FLAG M2 Affinity Gel (Cytiva) at 4 °C and under agitation for 4 h. Subsequently, beads were washed in BC buffer containing various NaCl concentrations (once in BC with 1 M NaCl, twice in BC with 500 mM NaCl, twice in BC with 250 mM NaCl and twice in BC with 100 mM NaCl). FLAG-tagged proteins were either maintained bead-bound as a 50% (v/v) slurry in BC buffer with 100 mM NaCl and stored at −80 °C or were eluted in the appropriate elution buffer (depending on the subsequent assay) containing 0.25 mg/mL 3xFLAG peptides (Sigma-Aldrich) at 4 °C for 30–45 min. To remove the FLAG-peptides from the eluate, dialysis was performed in elution buffer containing 10% (v/v) glycerol at 4 °C for 4–6 h using Slide-A-Lyzer Dialysis Devices (Thermo Fisher Scientific) according to the manufacturer’s recommendations.
(§4) In the first step, the fluorogenic substrate Nα-Benzoyl-L-arginine-7-amido-4-methylcoumarin (Bz-Arg-AMC, Sigma-Aldrich) undergoes methylation by PRMTs upon the addition of the cofactor SAM. In the second reaction step, trypsin cleaves the nonmethylated substrate, leading to the generation of the 7-amino-4-methylcoumarin product, which can be quantified by subsequent fluorescence measurement (excitation: 355 nm, emission: 460 nm). The first reaction was conducted with bead-bound PRMTs at a total volume of 100 μL. Each condition was performed as a technical triplicate to determine the mean and the standard deviation. […] For the negative controls, SAM was substituted with assay buffer. The incubation was continued at 37 °C and under agitation (1,000 rpm) for a duration of 2 h.
As to `CCN(CCCC(=O)Nc1cccc(C)c1)C1CNC1` [Compound K600JK005], the “Experimental result (PRMT6)” value is on record as “n.e. (did not significantly affect the catalytic activity of the intended PRMT (less than ±6% change or not significant p-value), are marked with n.e. (no effect))”. As for `CCN(CC(=O)NCCc1cccc(Cl)c1)C1CNC1` [Compound K600JK006], the “Experimental result (PRMT6)” value is on record as “n.e. (did not significantly affect the catalytic activity of the intended PRMT (less than ±6% change or not significant p-value), are marked with n.e. (no effect))”. For `CC(C)N(CCCOCc1ccccc1)CC(=N)NO` [Compound K600JK007], the “Experimental result (PRMT6)” value is on record as “n.e. (did not significantly affect the catalytic activity of the intended PRMT (less than ±6% change or not significant p-value), are marked with n.e. (no effect))”.

As to `CC(C)(C)c1cccc(OCCNC2CC(CN)C2)c1` (stereo not shown) [Compound K600JK008], the “Experimental result (PRMT6)” value is “n.e. (did not significantly affect the catalytic activity of the intended PRMT (less than ±6% change or not significant p-value), are marked with n.e. (no effect))”.

The next assay deals with T2, FLAG-tagged PRMT1 (Rattus norvegicus, UniProt Q63009).
T2 construct: Full-length FLAG-tagged PRMT protein; made in house; host or cells: Sf9 insect cells (baculovirus)
T2 sequence (Q63009 whole entry): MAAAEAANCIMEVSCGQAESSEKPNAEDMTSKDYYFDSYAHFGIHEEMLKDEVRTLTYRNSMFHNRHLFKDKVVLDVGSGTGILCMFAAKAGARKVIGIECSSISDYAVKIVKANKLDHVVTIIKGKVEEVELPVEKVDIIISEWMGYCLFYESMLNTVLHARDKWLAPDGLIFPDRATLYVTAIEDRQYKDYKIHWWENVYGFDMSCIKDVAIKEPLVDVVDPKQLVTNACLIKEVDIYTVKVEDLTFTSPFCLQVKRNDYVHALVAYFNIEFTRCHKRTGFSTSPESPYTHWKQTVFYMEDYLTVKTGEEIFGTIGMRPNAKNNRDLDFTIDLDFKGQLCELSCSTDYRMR
Briefly: Fluorescence-based in vitro PRMT assay (F-PRMT assay), PRMT1. The format is biochemical. The note with it: 100 μM compound.
Regarding `CN(C)c1ccccc1N/C=C1\C(=O)NC(=O)c2ccccc21` [ICTR-015], the “effect on PRMT1 activity (in words)” value is given as “no effect”.

As to `Nc1ccccc1N/C=C1\C(=O)NC(=O)c2ccccc21` [ICTR-019], the “effect on PRMT1 activity (in words)” value is listed as “no effect”. Turning to `O=C1NC(=O)c2ccccc2C1=CNc1ccccc1Cn1cccc1` [ICTR-036], the “effect on PRMT1 activity (in words)” value is reported as “no significant or minimal inhibitory activity”. As for `O=C1NC(=O)c2ccccc2C1=CNc1ccccc1Cn1cncn1` [ICTR-042], the “effect on PRMT1 activity (in words)” value is listed as “no significant or minimal inhibitory activity”. Turning to `CN(C)c1ccccc1CN/C=C1\C(=O)NC(=O)c2ccccc21` [ICTR-052], the “effect on PRMT1 activity (in words)” value is reported as “no effect or a modest activating effect”. On the same count and under the same terms, next, `CCN(CC)c1ccccc1N/C=C1\C(=O)NC(=O)c2ccccc21` [ICTR-060]: “no effect”. As to `CN(C)Cc1ccccc1CN/C=C1\C(=O)NC(=O)c2ccccc21` [ICTR-063], the “effect on PRMT1 activity (in words)” value is “reduced activating effect”. Same read-out and setting: next, `CC(C)Cc1ccc(N/C=C2\C(=O)NC(=O)c3ccccc32)cc1` [ICTR-076]: “no effect”. Turning to `CCN(CC)Cc1ccccc1-c1ccc2[nH]c(=O)c3ccccc3c2c1` [ICTR-094], the “effect on PRMT1 activity (in words)” value was “significantly lower activation of PRMT1 compared to TR-07”.

Consider `CCN(CC)Cc1cccc(-c2ccc3[nH]c(=O)c4ccccc4c3c2)c1` [ICTR-096], for which the “effect on PRMT1 activity (in words)” value is reported as “significantly increased PRMT1 activity”.

On to `C[N+](C)(C)Cc1cccc(CN/C=C2\C(=O)NC(=O)c3ccccc32)c1.[I-]` [ICTR-108], for which the “effect on PRMT1 activity (in words)” value is reported as “no effect or a modest activating effect”. On the same count and under the same terms, the value for `CCN(CC)Cc1ccccc1CN/C=C1\C(=O)NC(=O)c2ccccc21` [ICTR-119] was “no significant effect”; that for `CN(C)CCCN/C=C1\C(=O)NC(=O)c2ccccc21` [TR-018, (Z)-4-({[3-(Dimethylamino)propyl]amino}methylene)isoquinoline-1,3(2H,4H)-dione] was “activated PRMT1 in a significant manner, albeit to a considerably lesser extent than TR-07”; that for `CN(C)Cc1ccccc1N/C=C1\C(=O)NC(=O)c2ccccc21` [TR-022] was “equal”. For the compound `O=C1NC(=O)c2ccccc2/C1=C/Nc1ccccn1` [TR-030, (Z)-4-[(Pyridin-2-ylamino)methylene]isoquinoline-1,3(2H,4H)-dione], the “effect on PRMT1 activity (in words)” value is “no significant effect”. The same measure, in the same setting: next, `O=C1NC(=O)c2ccccc2C1=CNc1cccnc1` [TR-031]: “no significant effect”; `O=C1NC(=O)c2ccccc2C1=CNCc1cccnc1` [TR-032]: “activated PRMT1 in a significant manner, albeit to a considerably lesser extent than TR-07”. The same measure, in the same setting: the value for `O=C1NC(=O)c2ccccc2C1=CNc1cccc(CN2CCOCC2)c1` [TR-038] was “strong inhibitory effect”.

The same assay, now with this note: 100 μM compound, increase over solvent-treated activity; read-out: enhancement (increase) of PRMT1 enzymatic activity.
Take `CCN(CC)Cc1cccc(-c2ccc3[nH]c(=O)c4ccccc4c3c2)c1` [ICTR-096]: the activation at 100 µM is at least 60%. `CN(C)Cc1ccc(N/C=C2\C(=O)NC(=O)c3ccccc32)cc1` [TR-021]: the activation at 100 µM is at least 60%.

The target of another assay is T3, FLAG-tagged PRMT4 (Mus musculus, UniProt Q9WVG6).
T3 construct: Full-length FLAG-tagged PRMT protein; made in house; host or cells: Sf9 insect cells (baculovirus)
T3 sequence (Q9WVG6 1-608): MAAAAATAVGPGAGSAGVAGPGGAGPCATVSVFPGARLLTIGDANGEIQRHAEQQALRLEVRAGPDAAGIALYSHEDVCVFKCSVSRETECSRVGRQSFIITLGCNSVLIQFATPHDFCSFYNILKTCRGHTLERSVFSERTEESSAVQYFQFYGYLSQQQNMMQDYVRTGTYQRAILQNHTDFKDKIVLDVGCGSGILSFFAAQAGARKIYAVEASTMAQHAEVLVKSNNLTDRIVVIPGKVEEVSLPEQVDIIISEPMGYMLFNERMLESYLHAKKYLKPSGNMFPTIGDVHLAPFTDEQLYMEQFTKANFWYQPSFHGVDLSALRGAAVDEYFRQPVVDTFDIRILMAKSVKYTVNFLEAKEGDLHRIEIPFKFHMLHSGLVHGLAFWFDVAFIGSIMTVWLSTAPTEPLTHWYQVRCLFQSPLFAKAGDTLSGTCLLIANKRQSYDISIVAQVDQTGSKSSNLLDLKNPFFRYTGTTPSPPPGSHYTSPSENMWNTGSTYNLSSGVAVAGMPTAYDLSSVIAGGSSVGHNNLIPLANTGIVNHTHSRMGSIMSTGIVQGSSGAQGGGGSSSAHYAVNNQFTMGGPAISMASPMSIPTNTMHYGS
Briefly: Fluorescence-based in vitro PRMT assay (F-PRMT assay), PRMT4. The class given is biochemical. The note with it: Table S2; 100 µM compound, vs solvent control = 100%, n=3; racemates used.
From the text: as §1, §2, §3, §4
Regarding `Cc1nc([C@@H](O)Cc2ccccc2)n(CCc2cnc[nH]2)n1` (racemic) [Compound K001FT007], the “Experimental result (PRMT4)” value is reported as “n.e. (did not significantly affect the catalytic activity of the intended PRMT (less than ±6% change or not significant p-value), are marked with n.e. (no effect))”. With `CC[C@H](NC(=O)c1cccc(Cn2cccn2)c1)c1nc(C)c[nH]1` (racemic) [Compound K001FT009], the “Experimental result (PRMT4)” value was “n.e. (did not significantly affect the catalytic activity of the intended PRMT (less than ±6% change or not significant p-value), are marked with n.e. (no effect))”. For `OCCNC[C@@H](O)COc1ccccc1` (racemic) [Compound K001JS001], the “Experimental result (PRMT4)” value is “n.e. (did not significantly affect the catalytic activity of the intended PRMT (less than ±6% change or not significant p-value), are marked with n.e. (no effect))”. Regarding `O[C@H](CNCc1ccco1)COc1ccc2ccccc2c1` (racemic) [Compound K001JS002], the “Experimental result (PRMT4)” value is reported as “n.e. (did not significantly affect the catalytic activity of the intended PRMT (less than ±6% change or not significant p-value), are marked with n.e. (no effect))”. Turning to `CNC(=O)COc1ccc(NC(=O)[C@@H]2NC[C@@H]3C[C@@H]32)cc1` (racemic) [Compound K400JK006], the “Experimental result (PRMT4)” value is reported as “n.e. (did not significantly affect the catalytic activity of the intended PRMT (less than ±6% change or not significant p-value), are marked with n.e. (no effect))”. The same measure, in the same setting: the value for `C#CCNCC(=O)Nc1ccc([C@@H]2C[C@H]2N)cc1` (racemic) [Compound K400JK009] was “n.e. (did not significantly affect the catalytic activity of the intended PRMT (less than ±6% change or not significant p-value), are marked with n.e. (no effect))”.

Staying with this assay, now noted: Table S2; 100 µM compound; mean % difference vs solvent control (100%), n=3.
With `NCCNC[C@@H](O)COc1ccc(Cl)c(Cl)c1` (racemic) [Compound K001FT003], the “Efficacy ±∆% (PRMT4)” value was -50%.
